This is an account of results in article PMC12040169 (PLOS Biology, 2025).

A short description of the series: in vitro. As to conditions: human, hela cells, % viability.
As to `CN(Cc1ccccc1)c1nccnc1-c1ccccc1F` [CBK037410], the viability (commonly a read-out of living cells in per cent, often relative to untreated cells) at 28.5 h, 10 µM was 95%.
On to `CC(C)(C)CC(=O)NS(=O)(=O)c1cccc(-c2nnco2)c1` [CBK305258], for which the viability at 28.5 h, 10 µM was 78%.
Consider `CCn1c(CCCNC=O)nc2ccccc21` [CBK269551], for which the viability at 28.5 h, 10 µM came out at 86.2%.
With `CCOC(=O)c1c(NC(=O)Cn2cnc([N+](=O)[O-])n2)sc2c1CCC(C)C2` (stereo not shown) [CBK263058], the viability at 28.5 h, 10 µM stood at 120%.
For `CC(C)c1cc(C(=O)NC(c2ccccc2)c2ccnn2C)n(C)n1` (stereo not shown) [CBK282535], the viability at 28.5 h, 10 µM was 102%.
`NC(=O)c1cnn(-c2cc(Oc3ccccc3)ncn2)c1N` [CBK098664]: the viability at 28.5 h, 10 µM is 105%.
As for `Cc1ccc([N+](=O)[O-])cc1NC(=O)CSc1nnc(Cc2ccccc2)o1` [CBK265889], the viability at 28.5 h, 10 µM turned out to be 116%.
For the molecule `COc1ccccc1NS(=O)(=O)c1ccc(C)c(C(=O)NCC(c2ccco2)N2CCCCC2)c1` (stereo not shown) [CBK296669], the viability at 28.5 h, 10 µM was found to be 81.3%.
The result for `CCOc1ccccc1OCc1nn2c(-c3ccncc3)nnc2s1` [CBK268535] reads 111%; that for `COCCN(CCOC)Cc1c(O)ccc2c3c(c(=O)oc12)CCC3` [CBK263733], 75.4%; that for `O=c1[nH]cc(-c2ccc(F)cc2)cc1CNCc1cccc(F)c1` [CBK284697], 94.6%.
As for `CCOC(=O)C1=CC2C(=NC3=C2CCCC3)C=C1` (stereo not shown) [CBK009652], the viability at 28.5 h, 10 µM was 74.6%.
For `COc1ccc(C(=O)Nc2nc(-c3nc4ccccc4s3)cs2)cc1` [CBK287563], the viability at 28.5 h, 10 µM turned out to be 102%.
For the molecule `O=C(Nc1ccc(F)c(Cl)c1)c1cccnc1Sc1cccs1` [CBK057512], the viability at 28.5 h, 10 µM was 89%.
Consider `CN(C)CC1CCCN(C(=O)c2cc3cc(F)ccc3n2C)C1` (stereo not shown) [CBK282122], for which the viability at 28.5 h, 10 µM was 85.6%.
The result for `CCNC(=O)N1CC2(CCN(CC3COc4ccccc4O3)CC2)c2ccccc21` (stereo not shown) [CBK143944] reads 102%.
With `CN(C)[C@H]1CCN(C(=O)c2ccc(Nc3cncc(Cl)n3)cn2)C1` [CBK172073], the viability at 28.5 h, 10 µM worked out at 88.8%.
The result for `N#Cc1c(Oc2cccc(Cl)c2Cl)cccc1C(F)(F)F` [CBK002592] reads 91.1%; that for `O=C(O)C1C2CCC(O2)C1C(=O)Nc1ccc2c(c1)OCCO2` (stereo not shown) [CBK263677], 103%; that for `Cc1cccc(C)c1OCC(O)CNCCc1ccccc1` (stereo not shown) [CBK003072], 107%.
The result for `CCn1cc(C2CN(S(=O)(=O)c3sc(C)nc3C)CCO2)cn1` (stereo not shown) [CBK305420] reads 96.8%; that for `O=C1c2ccc(-c3nc4ccc(Cl)cc4c(=O)o3)cc2C(=O)N1Cc1cccnc1` [CBK268460], 104%; that for `N#C/C(=C/c1ccc(Sc2nc3ccccc3[nH]2)o1)c1ccc(C(=O)O)cc1` [CBK269141], 112%.
The result for `Cc1ccc(-c2nccnc2OC2CCCCC2)c(C)c1` [CBK106983] reads 94%; that for `COc1ccccc1N1CCn2c1nc1c2c(=O)n(CCN2CCOCC2)c(=O)n1C` [CBK269265], 93.4%.
For the molecule `CC(NC(=O)COc1ccc(Cl)cc1Cl)C(=O)O` (stereo not shown) [CBK261425], the viability at 28.5 h, 10 µM was 91.2%.
In the case of `Cc1nc[nH]c1CN(Cc1ccccc1)C1CC(C)(C)NC(C)(C)C1` [CBK283178], the viability at 28.5 h, 10 µM was 92%.
The result for `CN1CCC2(CC1)NCCc1c2ccn1S(=O)(=O)c1ccc(I)cc1` [CBK061945C] reads 111%.
The result for `Cc1cccc(C)c1NC(=O)CN1CCCN(c2cc(OCCN3C(=O)CCC3=O)ncn2)CC1` [CBK083313T] reads 97.9%; that for `O=S(=O)(NCCSc1ccccn1)c1ccc(Br)cc1` [CBK264001], 99.3%.
Consider `COc1ccc(C)cc1C(O)CN1CCOC(c2ccc(F)cc2)C1` (stereo not shown) [CBK298264], for which the viability at 28.5 h, 10 µM is 95.5%.
For the molecule `Cc1cc(O)c(C(=O)Nc2cccc(Cl)c2)c(=O)n1Cc1ccco1` [CBK291143], the viability at 28.5 h, 10 µM was 91.2%.
On to `Cc1nn(C)c(Cl)c1S(=O)(=O)NCc1cc(C)n(C)n1` [CBK062154], for which the viability at 28.5 h, 10 µM was 94.5%.
The result for `CC(C)(C)OC(=O)N1CCC2(CC1)NC(=O)c1cc(-c3cccc(S(C)(=O)=O)c3)ccc1O2` [CBK131967] reads 102%; that for `Cc1cc2c(s1)c1cnn(CC(=O)NC3CC3)c(=O)c1n2C` [CBK284246], 90.5%.
As for `Cn1c(=O)c2c(nc(CN3CCN(Cc4ccccc4)CC3)n2CCCc2ccccc2)n(C)c1=O` [CBK269582], the viability at 28.5 h, 10 µM came out at 90.9%.
The result for `CN1CCN(CCCOc2ccccc2OCc2ccccc2)CC1` [CBK269630C] reads 90.4%; that for `COc1cccc(CN2CC[C@H]3[C@@H](C2)[C@H](c2ccsc2)CN3C(=O)c2ccccc2)c1` [CBK285616], 97.5%; that for `Cc1ccccc1NC(=O)NCCCN1CCN(C)CC1` [CBK267837], 85.2%.
In the case of `N#Cc1cccc(S(=O)(=O)N2CCCCC2CO)c1` (stereo not shown) [CBK051524], the viability at 28.5 h, 10 µM is 100%.
On to `CC(C)(CC(=O)O)CC(=O)Nc1ccc2c(c1)ncn2CCc1ccccc1` [CBK299768], for which the viability at 28.5 h, 10 µM came out at 91.7%.
Consider `COC(=O)c1ccc(CSc2nnc(-c3ccc(OC)cc3)n2C(C)C)o1` [CBK297523], for which the viability at 28.5 h, 10 µM came to 96.4%.
`O=C(/C=C/c1ccc2c(c1)OCO2)NCc1ccc(-c2csnn2)cc1` [CBK149297]: the viability at 28.5 h, 10 µM was 88.1%.
For `CCOc1cccc(CNn2cnnc2)c1OCc1ccccc1` [CBK265824], the viability at 28.5 h, 10 µM is 81.2%.
With `COc1ccc(N2CCN(C(=O)CCC(=O)c3cccs3)CC2)cc1` [CBK091413], the viability at 28.5 h, 10 µM came to 94.3%.
As for `CN1CCCN(c2cncc(-c3cc4ccccc4o3)n2)CC1` [CBK065997], the viability at 28.5 h, 10 µM worked out at 93%.
For the molecule `Fc1c(CN2CCOCC2)cccc1CN1CCOCC1` [CBK085967], the viability at 28.5 h, 10 µM was found to be 97.6%.
Turning to `C[C@H](NC(=O)N1CCC(c2nc(-c3ccccc3)c3ccccn23)CC1)c1ccccc1` [CBK047086], the viability at 28.5 h, 10 µM is 92.7%.
As to `Cc1ccc2c(N)c(C(=O)Nc3ccc(C#N)cc3)sc2n1` [CBK115348], the viability at 28.5 h, 10 µM came to 91.3%.
Regarding `CCc1nc2ccc(C(=O)N(C)C(C)C)cn2c1N(C)CCN1CCOCC1` [CBK146436], the viability at 28.5 h, 10 µM was 95.2%.
For the molecule `CCCC/C=C/c1ccc(N2CCN(CCN(C)C)CC2)nc1` [CBK036980], the viability at 28.5 h, 10 µM stood at 101%.
Then `CS(=O)(=O)Nc1ccc2cc(-c3ccccc3)cnc2n1` [CBK061899], with 91.2%; and `C=CCn1c2cc(C)sc2c2cnn(CC(=O)OCC)c(=O)c21` [CBK284165], with 82.9%.
Then `Clc1ncccc1OCCOc1ccccc1` [CBK003888], with 87.2%; and `COc1cc(-c2nnc(NC(C)=O)o2)cc(OC)c1OC` [CBK287698], with 95.2%; and `O=C(CC(NC1CCCCC1)C(=O)O)Nc1cccc(Cl)c1` (stereo not shown) [CBK266916], with 98.5%.
On to `O=C1/C(=C/c2ccc3c(c2)OCO3)SC(=S)N1CCCC(=O)N1CCCc2ccccc21` [CBK264676], for which the viability at 28.5 h, 10 µM is 98.2%.
As for `NS(=O)(=O)c1ccc(NC(=O)CN2CCN(c3cccc(C(F)(F)F)c3)CC2)cc1` [CBK266180], the viability at 28.5 h, 10 µM is 105%.
